Patent US20230159509A1 (Amathus Therapeutics, Inc., priority 2020, published 2023)

Legend:
[1] = system: primary rat dopaminergic TH-positive neurons; assay: ROS production and neurite network in primary rat dopaminergic TH-positive neurons injured with MPP+ or 6-OHDA; type: cell-based
TRAP1 enzyme = target: T1, TRAP1 enzyme (Homo sapiens, UniProt Q12931); assay: ADP Glo assay of TRAP1 ATPase activity; type: biochemical
T1 construct: 150 nM Trap1 enzyme was incubated with various concentrations of the test compound
T1 sequence (Q12931 60-704): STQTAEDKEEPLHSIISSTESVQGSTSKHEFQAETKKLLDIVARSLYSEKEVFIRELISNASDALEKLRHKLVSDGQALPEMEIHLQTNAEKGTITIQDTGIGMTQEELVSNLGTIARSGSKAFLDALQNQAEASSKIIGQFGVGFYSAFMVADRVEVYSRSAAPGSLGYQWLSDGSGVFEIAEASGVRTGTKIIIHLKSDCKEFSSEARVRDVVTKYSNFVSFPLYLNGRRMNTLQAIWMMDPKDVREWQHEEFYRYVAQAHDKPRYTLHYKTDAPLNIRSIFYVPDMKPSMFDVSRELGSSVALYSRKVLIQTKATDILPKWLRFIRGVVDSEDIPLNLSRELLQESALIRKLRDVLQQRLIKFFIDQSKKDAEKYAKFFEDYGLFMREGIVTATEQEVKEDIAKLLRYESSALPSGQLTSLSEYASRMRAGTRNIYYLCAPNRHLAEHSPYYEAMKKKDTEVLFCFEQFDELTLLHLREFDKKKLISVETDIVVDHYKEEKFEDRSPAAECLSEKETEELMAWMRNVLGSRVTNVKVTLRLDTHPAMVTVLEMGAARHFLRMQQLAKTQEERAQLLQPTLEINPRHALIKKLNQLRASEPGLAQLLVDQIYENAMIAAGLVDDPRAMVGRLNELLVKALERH
Summary of the method: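 ADP-Glo luminescence quantifying ADP from 150 nM TRAP1 preincubated 30 min at 37° C with compound (0.79–100 μM), then 20 μM ATP for 60 min at 37° C. Buffer: 25 mM Pipes pH 7.5, 40 mM KCl, 0.05 mM MgCl2, EGTA, BSA, detergents. ADP from ATP/ADP standard curve; Emax and EC50 from sigmoidal fit.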

α-synuclein = α-synuclein aggregation in human embryonic stem cells overexpressing α-synuclein with an AAV vector; type: cell-based; details: FIG. 9

Structure (SMILES): COc1ncc(NC(=O)c2csc(-c3ccccc3)n2)cc1S(=O)(=O)Nc1c(C)cccc1C [compound 1178]
- neurite network of primary rat TH+ dopaminergic neurons ([1]; injured with MPP+ (4 μM, 24 h), FIG. 4): protection of the neurite network
- neurite network of primary rat TH+ dopaminergic neurons ([1]; injured with MPP+ (4 μM, 48 h), FIG. 5): protection of neurite network
- ROS production in primary rat dopaminergic neurons ([1]; injury with 6-OHDA (20 μM, 4 h), FIG. 8): reduction in ROS
- ROS production in primary rat dopaminergic neurons ([1]; injury with MPP+ (4 μM, 4 h), FIG. 2): reduction of reactive oxygen species (ROS)
- ROS production in rat primary mesencephalic culture ([1]; injury with MPP+ (4 μM, 4 h), FIG. 3): reduction ROS
- EC50 (TRAP1 enzyme; concentration for half maximal activation, read-out: ADP GLO DRC: GeoMean EC50): < 10 µM
- Emax (TRAP1 enzyme; maximal percent activation, read-out: ADP GLO DRC: Mean Emax): 200 to 300%
- α-synuclein aggregation (α-synuclein): reduction in α-synuclein aggregation
